Converted amounts (≈) assume the structure as drawn.
Tests used:
[1] = Solubility determination in oil (Table 10); conditions: thermodynamic from solid; for solubility thermodynamic: water, Equilibrium solubility: Water
Description: A known amount of test substance (˜40 mg) was weighed into the vial, 100 μL of oil was added and heated to 60° C. and then system was slurried to reach equilibrium. […] Extra oil was added into the vial once compound precipitated out and then the system was re-equilibrated at 1000 rpm at room temperature (25° C.). Final concentration was determined by HPLC method as described below in Table 6a and 6b.

KOR = biological target: T1, KOR (Homo sapiens, UniProt P41145); assay: Opioid receptor binding assay, KOR ([3H]Diprenorphine)
T1 construct: expressed in transfected cells
T1 sequence (P41145 whole entry): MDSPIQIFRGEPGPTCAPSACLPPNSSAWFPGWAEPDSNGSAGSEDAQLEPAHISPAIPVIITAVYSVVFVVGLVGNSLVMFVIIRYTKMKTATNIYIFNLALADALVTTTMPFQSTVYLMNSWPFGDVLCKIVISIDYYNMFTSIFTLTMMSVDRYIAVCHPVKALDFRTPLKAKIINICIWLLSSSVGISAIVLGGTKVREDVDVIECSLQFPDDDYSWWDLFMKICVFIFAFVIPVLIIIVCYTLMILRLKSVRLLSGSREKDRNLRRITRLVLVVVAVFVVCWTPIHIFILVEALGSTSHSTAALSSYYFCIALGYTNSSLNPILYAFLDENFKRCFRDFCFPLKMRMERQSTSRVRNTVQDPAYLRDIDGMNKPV
Description: (§1) Receptor binding assays were performed to assess the ability of compounds to inhibit binding to radiolabeled ligand.
(§2) The stable cell lines were established and prepared cell membrane obtained using these cell lines.
(§3) 1) Transfer 1 μl of specified concentration compound to assay plate according to the plate map for nonspecific binding. Transfer 1 μl of DMSO to assay plate according to plate map for total binding. 2) Follow the plate map. Dispense 99 μl of membrane stocks into the plate. 3) Add 100 μl of radio ligand. 4) Seal the plates. Incubate at RT for 1 hour. 5) Soak the Unifilter-96 GF/C filter plates with 50 μl of 0.3% PEI per well for at least 0.5 hour at room temperature. 6) When binding assays are completed, filter the reaction mixture through GF/C plates using Perkin Elmer Filtermate Harvester, and then wash each plate for 4 times with cold wash buffer. 7) Dry the filter plates for 1 hour at 50 degrees. 8) After drying, seal the bottom of the filter plate wells using Perkin Elmer Unifilter-96 backing seal tape. Add 50 μl of Perkin Elmer Microscint 20 cocktail. Seal top of filter plates with Perkin Elmer TopSeal-A sealing film. 9) Count ^3H trapped on filter using Perkin Elmer MicroBeta2 Reader second day. 10) Analyze the data with GraphPad Prism 5. Calculate the “Inhibition [% Control]” using the equation: % Inh=(1−Background subtracted Assay value/Background subtracted HC value)*100.

MOR = biological target: T2, MOR (Homo sapiens, UniProt P35372); assay: Opioid receptor binding assay, MOR ([3H]DAMGO)
T2 construct: expressed in transfected cells
T2 sequence (P35372 whole entry): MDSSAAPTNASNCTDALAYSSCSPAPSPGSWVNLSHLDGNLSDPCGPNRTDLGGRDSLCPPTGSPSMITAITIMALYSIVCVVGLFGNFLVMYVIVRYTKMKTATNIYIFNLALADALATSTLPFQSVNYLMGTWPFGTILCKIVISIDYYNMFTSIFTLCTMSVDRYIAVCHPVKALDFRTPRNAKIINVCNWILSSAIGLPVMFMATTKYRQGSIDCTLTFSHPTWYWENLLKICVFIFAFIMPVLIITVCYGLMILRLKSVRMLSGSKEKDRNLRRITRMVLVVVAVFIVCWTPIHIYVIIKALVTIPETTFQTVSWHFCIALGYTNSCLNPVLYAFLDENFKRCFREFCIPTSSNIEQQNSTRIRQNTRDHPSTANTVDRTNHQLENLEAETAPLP
Description: as §1, §2, §3

DOR = biological target: T3, DOR (Homo sapiens, UniProt P41143); assay: Opioid receptor binding assay, DOR ([3H]-DADLE)
T3 construct: expressed in transfected cells
T3 sequence (P41143 whole entry): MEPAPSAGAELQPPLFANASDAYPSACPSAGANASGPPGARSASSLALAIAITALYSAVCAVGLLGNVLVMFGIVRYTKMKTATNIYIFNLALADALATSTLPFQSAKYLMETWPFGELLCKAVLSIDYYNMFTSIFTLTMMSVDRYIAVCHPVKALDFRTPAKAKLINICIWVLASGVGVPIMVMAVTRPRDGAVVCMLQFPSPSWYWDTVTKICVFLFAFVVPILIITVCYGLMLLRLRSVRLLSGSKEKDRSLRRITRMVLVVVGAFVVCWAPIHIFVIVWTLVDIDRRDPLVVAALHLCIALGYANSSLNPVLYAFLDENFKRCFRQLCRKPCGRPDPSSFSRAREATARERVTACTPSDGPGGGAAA
Description: as §1, §2, §3

[2] = Dog pharmacokinetic studies, deep intramuscular administration; assay type: in vivo, Beagle dogs; conditions: for AUC(0-inf) / half-life: Beagle, dog, plasma, im; for AUC(0-inf): read-out: AUC0-inf (ng · h/mL) prodrug; for half-life: read-out: Half-life t1/2 (hour) prodrug (converted)
Description: The purpose of this study is to determine the pharmacokinetics of test compounds in plasma, following deep intramuscular administration to Beagle dogs (n=3, unless otherwise specified).
(§4) The dose formulation (concentration—400 mg base equivalents/ml in sesame oil+1% benzyl alcohol, unless otherwise specified) was administered via deep intramuscularly (unless otherwise specified). The injection vehicle was also dosed via deep intramuscular route (unless otherwise specified) on contralateral site of each animal at study initiation. The animals were sedated with Propofol at 6 mg/kg via IV administration. Following sedation hair was carefully removed from around the injection site and the area gently cleaned. Care will be taken to avoid irritating skin during shaving and cleaning the injection site. Then dogs will be dosed with deep IM administration. At least 2.5 cm depth from the surface into the central aspect of the quadriceps or biceps femoris muscle, by angling the needle toward the femur. If the needle hits the femur, simply draws back slightly and then inject. The dose volume will be determined by the animals' body weight collected on the morning of dosing day. For repeated administration, the injection sites may be rotated to minimize tissue injury.
Blood samples were collected from a peripheral vessel from restrained, non-sedated animals per sampling time point.
Approximately 0.8 mL blood will be collected at each time point.
(§5) Each collected blood sample was centrifuged for 4 minutes at 4° C. and 10000 rpm for plasma collection. Plasma was collected and transferred into a pre-labeled PP tube in dry ice at each time point and precipitated immediately using ACN at a ratio of 1:4 (plasma:ACN).
(§6) LC-MS/MS methods for the quantitative determination of test compound in biological matrix were developed. […] The sample analysis was performed concurrently with a set of calibration standards and two sets of QC samples using the LC-MS/MS method.
(§7) Plasma concentration versus time data was analyzed by non-compartmental approaches using the Phoenix WinNonlin 6.3 software program. Cmax, Tmax, T1/2, AUC(0-t), AUC(0-inf), MRT(0-t), MRT(0-inf) and graphs of plasma concentration versus time profile were prepared.

[3] = Dog body weights and clinical observation (Tables 66-86); assay type: in vivo, Beagle dogs; conditions: dog D1002, 48 mg/kg
Description: Weight monitoring was done every week.
as §4

[4] = Liver S9 fraction stability, dog; assay type: in vitro ADME; conditions: dog liver S9 1.0 mg/ml, 2 μM, 37° C.
Description: (§8) Liver S9 fraction stability determination of the test compounds in dog, cynomolgus monkey and human is performed using HPLC-MS. Test compound (2 μM, 0.1% DMSO, 1% Methanol final concentration) was assessed for stability in a 50 μl phosphate buffer containing 1.0 mg/ml S9 protein from each of the three species and 5 mM D-saccharic acid-1, 4-lactone. Samples were incubated at 37° C. for 60 minutes and the % compound remaining was assessed.

[5] = Liver S9 fraction stability, monkey; assay type: in vitro ADME, cynomolgus monkey; conditions: monkey liver S9 1.0 mg/ml, 2 μM, 37° C.
Description: as §8

[6] = Liver S9 fraction stability, human; assay type: in vitro ADME; conditions: human liver S9 1.0 mg/ml, 2 μM, 37° C.
Description: as §8

[7] = Rat pharmacokinetic studies, intramuscular administration; assay type: in vivo, male Sprague Dawley Rats; conditions: male, Sprague Dawley, rat, plasma, im, Sesame oil + 1% Benzyl Alcohol; for AUC(0-inf): read-out: AUC0-inf (ng · h/mL) prodrug; for half-life: read-out: Half-life t1/2 (hour) prodrug (converted)
Description: The purpose of this study is to determine the pharmacokinetics of test compounds in plasma, following intramuscular administration to male Sprague Dawley Rats (n=3, unless otherwise specified).
The dose formulation of 400 mg base equivalents/ml in sesame oil+1% benzyl alcohol (unless otherwise specified) was administered by intramuscular injection. The dose volume was determined by the animals' body weight determined on the morning of dosing day.
as §5, with “(plasma:ACN). Centrifuged again (10 minutes, 12000 rpm) and obtain the supernatant.” for “(plasma:ACN).”
as §6, §7

[8] = 25 °C, oil or lipid, Approximate Solubility in Excipient: Cottonseed oil, Heating Temp. 60 °C, Obs. Temp. 25 °C
[9] = 25 °C, oil or lipid, Approximate Solubility in Excipient: Sesame oil, Heating Temp. 60 °C, Obs. Temp. 25 °C
[10] = 40 °C, oil or lipid, Approximate Solubility in Excipient: Cottonseed oil, Heating Temp. 60 °C, Obs. Temp. 40 °C
[11] = 40 °C, oil or lipid, Approximate Solubility in Excipient: Sesame oil, Heating Temp. 60 °C, Obs. Temp. 40 °C
[12] = 40 °C, Heating Temp. 40 °C, Obs. Temp. 40 °C
[13] = 30 mg/kg, IM 30 mg/kg, Cottonseed + 1% Benzyl Alcohol
[14] = 48 mg/kg, IM 48 mg/kg, Cottonseed + 1% Benzyl Alcohol
[15] = IM 96 mg/kg, Cottonseed oil + 1% Benzyl Alcohol
[16] = 48 mg/kg, IM 48 mg/kg, Sesame oil + 1% Benzyl Alcohol
[17] = 30 mg/kg, IM 30 mg/kg, Sesame oil + 1% Benzyl Alcohol
[18] = 96 mg/kg, IM 96 mg/kg, Sesame oil + 1% Benzyl Alcohol

Structure (SMILES): C=C1CC[C@@]2(O)C3Cc4ccc(OC(=O)CCCCCCCCCCCCCCC)c5c4[C@@]2(CCN3CC2CC2)[C@H]1O5 [Compound 56, (4aS,7aS,12bS)-3-(cyclopropylmethyl)-4a-hydroxy-7-methylene-2,3,4,4a,5,6,7,7a-octahydro-1H-4,12-methanobenzofuro[3,2-e]isoquinolin-9-yl palmitate]
- solubility at 24 h [1, 8]: < 50 mg/mL
- solubility at 24 h [1, 9]: < 50 mg/mL
- solubility [1, 10]: 25 to 50 mg/mL (≈ 43.3 to 86.5 mM)
- solubility [1, 11]: 25 to 50 mg/mL (≈ 43.3 to 86.5 mM)
- solubility ([1]; 40 °C, organic solvent or mixture, Approximate Solubility in Excipient: Ethanol, Heating Temp. 60 °C, Obs. Temp. 40 °C): < 40.4 mg/mL
- solubility thermodynamic ([1]; 40 °C, Heating Temp. 60 °C, Obs. Temp. 40 °C): 0.0679 mg/mL (≈ 0.118 mM)
- melting point: 48.95 °C

Structure (SMILES): C=C1CC[C@@]2(O)C3Cc4ccc(OCOC(=O)CCCCCCCCCCCCC)c5c4[C@@]2(CCN3CC2CC2)[C@H]1O5 [Compound 45, (((4aS,7aS,12bS)-3-(cyclopropylmethyl)-4a-hydroxy-7-methylene-2,3,4,4a,5,6,7,7a-octahydro-1H-4,12-methanobenzofuro[3,2-e]isoquinolin-9-yl)oxy)methyl tetradecanoate]
- IC50 (KOR): 5.5 nM
- IC50 (MOR): 2 nM
- IC50 (DOR): 68.4 nM
- solubility at 24 h [1, 8]: > 402 mg/mL
- solubility at 24 h [1, 9]: 267 to 288 mg/mL (≈ 460 to 497 mM)
- solubility thermodynamic [1, 12]: < 0.001 mg/mL
- AUC(0-inf) [2, 13]: 100 ng·h/mL
- half-life [2, 13]: 151 h
- AUC(0-inf) [2, 14]: 267 ng·h/mL
- half-life [2, 14]: 171 h
- AUC0-inf (ng · h/mL) prodrug [2, 15]: None
- Half-life t1/2 (hour) prodrug [2, 15]: None

Structure (SMILES): C=C1CC[C@@]2(O)C3Cc4ccc(OCOC(=O)OCCCCCCCCCCC)c5c4[C@@]2(CCN3CC2CC2)[C@H]1O5 [Compound 5, (((4aS,7aS,12bS)-3-(cyclopropylmethyl)-4a-hydroxy-7-methylene-2,3,4,4a,5,6,7,7a-octahydro-1H-4,12-methanobenzofuro[3,2-e]isoquinolin-9-yl)oxy)methyl undecyl carbonate]
- BT ([3]; 456 hr): 3 cm * 3 cm/BT: 38.9 °C
- BT ([3]; 504 hr): 3 cm * 3 cm/BT: 38.7 °C
- BT ([3]; […]): 3 cm * 4 cm/BT: 39.4 °C
- solubility ([1]; 25 °C, oil or lipid, Solubility by volumetric flask method: Cottonseed oil, volumetric flask method, Heating Temp. 60 °C, Obs. Temp. 25 °C): > 402 mg/mL
- solubility ([1]; 25 °C, oil or lipid, Solubility by volumetric flask method: Sesame oil, volumetric flask method, Heating Temp. 60 °C, Obs. Temp. 25 °C): > 401 mg/mL
- solubility thermodynamic ([1]; 40 °C, section 'Solubility by volumetric flask method', Heating Temp. 40 °C, Obs. Temp. 40 °C): < 0.001 mg/mL
- AUC(0-inf) [2, 16]: 3870 ng·h/mL
- half-life [2, 16]: 70.9 h

Structure (SMILES): C=C1CC[C@@]2(O)C3Cc4ccc(OC(=O)CCCCCCC/C=C/CCCCCCCC)c5c4[C@@]2(CCN3CC2CC2)[C@H]1O5 [Compound 15, (4aS,7aS,12bS)-3-(cyclopropylmethyl)-4a-hydroxy-7-methylene-2,3,4,4a,5,6,7,7a-octahydro-1H-4,12-methanobenzofuro[3,2-e]isoquinolin-9-yl (E)-octadec-9-enoate]
- % remaining at 60 minutes, Dog [4]: 80.9%
- % remaining at 60 minutes, Monkey [5]: 76.7%
- solubility at 24 h [1, 8]: > 403 mg/mL
- solubility at 24 h [1, 9]: > 396 mg/mL
- solubility ([1]; 40 °C, oil or lipid, Approximate Solubility in Excipient: Cottonseed oil, Heating Temp. 40 °C, Obs. Temp. 40 °C): < 51 mg/mL
- solubility [1, 10]: > 401 mg/mL
- solubility ([1]; 40 °C, oil or lipid, Approximate Solubility in Excipient: Sesame oil, Heating Temp. 40 °C, Obs. Temp. 40 °C): < 52 mg/mL
- solubility [1, 11]: > 404 mg/mL
- solubility ([1]; 40 °C, organic solvent or mixture, Approximate Solubility in Excipient: Ethanol, Heating Temp. 40 °C, Obs. Temp. 40 °C): < 20 mg/mL
- solubility thermodynamic [1, 12]: < 0.0002 mg/mL
- % remaining at 60 minutes, Human [6]: 59.8%
- AUC(0-inf) [2, 17]: 521 ng·h/mL
- half-life [2, 17]: 134 h
- AUC(0-inf) [2, 16]: 1140 ng·h/mL
- half-life [2, 16]: 518 h
- AUC(0-inf) [2, 18]: 1350 ng·h/mL
- half-life [2, 18]: 162 h
- AUC(0-inf) ([7]; 80 mg/kg): 679 ng·h/mL
- half-life ([7]; 80 mg/kg): 1550 h
- AUC(0-inf) ([7]; 123 mg/kg): 2570 ng·h/mL
- half-life ([7]; 123 mg/kg): 884 h
- AUC(0-inf) ([7]; 165 mg/kg): 2790 ng·h/mL
- half-life ([7]; 165 mg/kg): 500 h
